Measurements taken from patent publication US11241440B2, “Dihydrooxadiazine compounds for treating infections and cancer” (VALORALIA I MÁS D, SL, priority 2016, dated 2022).
Where two headings read alike, the source gives them in different places.

Tests used:
[1] = tested on: MCF7; test: MTT assay; type: cell-based; conditions: Homo sapiens, 48 hours
[2] = tested on: HIV virus (NL4.3-Ren); test: microbe, parasite or virus in culture; type: cell-based; conditions: for Viral replication (%): relative to DMSO control, cells not given
[3] = tested on: NCI-H1299; test: MTT assay; type: cell-based; conditions: Homo sapiens, 48 hours
[4] = Cellular viability, CellTiter Glo (Table V, cells not stated); type: cell-based; conditions: human, relative to DMSO control
Experimental: (§1) All assays for assessing anti-HIV activity were taken in parallel to determine cellular viability of the culture in the presence or absence of different concentrations of the isolated molecule. It was followed exactly the same methodology as in the anti-HIV assay except with the addition of complete DMEM medium instead of supernatant viral, in the same proportion, and the detection of the viability was performed with the viability detection kit CellTiter Glo (Promega), following manufacturer instructions. Viability is directly proportional to the luciferase activity obtained. All data are expressed as percentage relative to a control with DMSO at the same concentration. Antiviral activity and toxicity curves were performed to the compound at different concentrations.

[5] = tested on: XGF-G (gG-deficient PRV gIS8); type: cell-based, porcine pseudorabies virus (PRV)
[6] = tested on: N. cyriacigeorgica; test: Kirby-Bauer disk diffusion susceptibility test; type: cell-based; conditions: N. cyriacigeorgica; 100 μg/disc; zone of inhibition
[7] = tested on: S. aureus; test: Kirby-Bauer disk diffusion susceptibility test; type: cell-based, Staphylococcus aureus; conditions: S. aureus; 100 μg/disc; zone of inhibition
[8] = tested on: Candida parapsilosis; test: EUCAST broth dilution antifungal susceptibility test (MIC); type: cell-based; conditions: 50% inhibition, 24 hours at 35° C., dilution range 64 to 0.12 mg/l
Experimental: Filamentous fungi and yeasts strains, from clinical origin, were supplied by Microbiology Service from The Princess Hospital, Madrid. They are detailed in Table III. Filamentous fungi and yeast cells suspensions in distilled water was prepared from a culture of 24-48 h, depending on species, in Sabouraud agar. Each suspension was adjusted to a fixed size inoculum of 1-5×10^8 CFU/ml with a spectrophotometer (Ferraro, M J National Committee for Clinical Laboratory Standards. 2000). Antifungal susceptibility tests were developed following the standardized methodology detailed by the European Committee on Antimicrobial Susceptibility Testing (EUCAST) documents 7.2 (method for the determination of broth dilution minimum inhibitory concentrations of antifungal agents for yeasts EDef 7.2) and 9.2 (Method for the determination of broth dilution minimum inhibitory concentrations of antifungal agents for conidia forming foulds). The compound was dissolved in DMSO and diluted with RPMI plates with 2% glucose to pH 7 with MOPS buffer. […] Plates were inoculated with a yeast suspension or filamentous fungal spores (1-5×10^5 cls/ml). The results were evaluated after 24 hours incubation at 35° C. and absorbance reading at 530 nm.

[9] = tested on: PBMCs; test: Cellular viability, CellTiter Glo; type: cell-based; conditions: PBMCs cells
Experimental: as §1

[10] = tested on: MT-2 cells; test: Cellular viability, CellTiter Glo; type: cell-based
Experimental: as §1

[11] = Cellular viability, CellTiter Glo; type: cell-based; conditions: human, read-out: CC50 nM (concentration of drug required to kill 50% of cells)
Experimental: as §1

[12] = tested on: B. cereus; test: Kirby-Bauer disk diffusion susceptibility test; type: cell-based, Bacillus cereus; conditions: B. cereus
[13] = tested on: HIV virus (NL4.3-Ren) and HIV virus pseudotyped with the envelope of VSV (NL4.3-VSV-Luc); test: Virus entry test, HIV and VSV-pseudotyped HIV in parallel; type: cell-based; conditions: NL4.3-Ren and NL4.3-VSV-Luc in parallel
[14] = tested on: XGF-N (PRG-NIA3 deficient in the envelope glycoprotein gG); type: cell-based, porcine pseudorabies virus (PRV)
[15] = tested on: equine herpes virus type 1 (EHV-1); test: Viral titer reduction; type: cell-based; conditions: 2 μM
[16] = tested on: T. pulmonis; test: Kirby-Bauer disk diffusion susceptibility test; type: cell-based, Tsukamurella pulmonis; conditions: T. pulmonis; 100 μg/disc; zone of inhibition
[17] = tested on: HSV-2, strain G; conditions: compound 2 μM
[18] = tested on: T98G; test: MTT assay; type: cell-based
Excerpt: This compound has a purple hue.
All tests are always in triplicate.
In Table VIII, quantification of the best IC50 is shown (concentration of compound that inhibits 50% of cell growth) using GraphPad Prism program.

[19] = tested on: HIV virus non-recombinant wild type (NL4.3); test: Inhibition of non-recombinant wild type HIV; type: cell-based; conditions: Human immunodeficiency virus 1
[20] = tested on: recombinant herpesvirus FTKGF; test: Fluorescence antiviral assay in Vero cells; type: cell-based, herpes simplex 1 virus; conditions: 0.01 MOI, 48 hours
Experimental: In the antiviral assay a special culture plate for fluorescence assays has been used, cultivated with Vero cells (200,000 cells/ml) and infected with the recombinant herpesvirus FTKGF at 0.01 MOI (Multiplicity of infection). For the standard curve (inhibition curve pattern), increasing concentrations of a known inhibitor of HSV infection, the phosphonoacetic acid (PAA), from 0 to 200 μg/ml, were used. The compound was tested at concentrations of […] over the virus. After 48 hours, the fluorescence intensity of FTKGF (reduction in fluorescence levels) in the plate reader Synergy HT Microplate Reader was measured.

[21] = tested on: PC3; test: MTT assay; type: cell-based; conditions: Homo sapiens, PC-3, 48 hours

## CCCCCC1=NN(C(=O)CCO)OC(CCCCC)C1 (stereo not shown) [Compound, 1-(4,6-dipentyl-5,6-dihydro-2H-1,2,3-oxadiazin-2-yl)-3-hydroxypropan-1-one]
[1]
  IC50: 127 nM
[2]; 0.19 μM
  Viral replication (%): 45%
[2]; 0.39 μM
  Viral replication (%): 14%
[2]; 0.78 μM
  Viral replication (%): 3%
[2]; 1.56 μM
  Viral replication (%): 1%
[2]; 3.12 μM
  Viral replication (%): 0%
[2]; 6.25 μM
  Viral replication (%): 0%
[2]; 12.5 μM
  Viral replication (%): 0%
[2]; 25 μM
  Viral replication (%): 0%
[2]; 50 μM
  Viral replication (%): 0%
[2]; 100 μM
  Viral replication (%): 0%
[2]; Human immunodeficiency virus 1, MT2, read-out: IC50 nM
  IC50: 243 nM
[2]; Human immunodeficiency virus 1, PBMC, read-out: IC50 nM
  IC50: 362 nM
[3]
  IC50: 192 nM
[4]; 0.19 μM
  viability at 0.19 µM: 114%
[4]; 0.39 μM
  viability at 0.39 µM: 113%
[4]; 0.78 μM
  viability at 0.78 µM: 109%
[4]; 1.56 μM
  viability at 1.56 µM: 96%
[4]; 3.12 μM
  viability at 3.12 µM: 78%
[4]; 6.25 μM
  viability at 6.25 µM: 31%
[4]; 12.5 μM
  viability at 12.5 µM: 7%
[4]; 25 μM
  viability at 25 µM: 4%
[4]; 50 μM
  viability at 50 µM: 2%
[4]; 100 μM
  viability at 100 µM: 0%
[5]
  reduction of the titer: 0.7 logarithms
[6]
  Activity (mm), 100 μg/disc: 35-38 mm
[7]
  Activity (mm), 100 μg/disc: 20-22 mm
[8]
  MIC (minimum inhibitory concentration): 0.5
[9]
  toxicity: only in the highest concentrations tested (5 and 10 μM)
[10]
  toxicity: only in the highest concentrations tested (5 and 10 μM)
[11]; MT-2 cells
  CC50: 2500 to 5000 nM
[11]; PBMCs
  CC50: 2500 to 5000 nM
[12]
  kind of antibiotic activity: bacteriostatic
[12]; 100 μg/disc, zone of inhibition
  Activity (mm), 100 μg/disc: 37-40 mm
[13]
  inhibition of HIV and VSV-pseudotyped HIV (dependence on virus entry): inhibited both viruses with the same potency
[14]
  reduction of the titer: 1 logarithm
[15]
  reduction of the titer: 1 logarithm
[16]
  Activity (mm), 100 μg/disc: 49-52 mm
[17]
  reduction of the titer: 3 logarithms
[18]
  concentration at which inhibition is obtained: 50 nM
  optimal concentration of inhibition: 100 nM
[18]; Homo sapiens, 48 hours
  IC50: 106 nM
[19]
  IC50: 333 nM
[20]; 200 nM
  inhibition at 0.2 µM: 60%
[20]; 400 nM
  inhibition at 0.4 µM: 92%
[21]
  IC50: 217 nM
